# Test results from US7138246B2, “Methods for identifying or screening for agents that modulate 17β-HSD3” (Bristol-Myers Squibb Company, priority 2004, dated 2006).
# Key:
# [1] = target: T1, 17β-HSD3 (Homo sapiens, UniProt P37058); assay: TLC assay of androstenedione to testosterone conversion in Shinogi-17β-HSD3 cells; format: cell-based; settings: Shinogi-17β-HSD3 cells incubated with {3H}-androstenedione; read-out: IC50 estimated by TLC assay
# T1 sequence (P37058 1-310): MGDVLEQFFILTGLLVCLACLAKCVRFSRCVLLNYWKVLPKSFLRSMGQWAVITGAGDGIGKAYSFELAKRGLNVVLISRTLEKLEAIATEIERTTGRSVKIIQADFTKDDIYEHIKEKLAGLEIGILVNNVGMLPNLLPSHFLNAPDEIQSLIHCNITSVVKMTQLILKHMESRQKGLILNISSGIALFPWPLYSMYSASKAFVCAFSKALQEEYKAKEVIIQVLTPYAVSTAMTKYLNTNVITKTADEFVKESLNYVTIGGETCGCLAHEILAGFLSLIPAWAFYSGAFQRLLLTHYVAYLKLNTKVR
# Method: Cells were plated in 24-well tissue culture plates at 5×10^4 cells per well in their appropriate media. After allowing the cells to adhere for 24 hours, the media was changed to contain 10% cFBS (charcoal treated FBS) (300 μL) per well and 0.5μ Ci of the radiolabeled hormones were added to each well. After 3 hours, the supernatant was removed and 500 μL of extraction buffer (3 parts Ethyl Acetate: 1 part Acetone) was added to each sample and vortexed extensively. The organic layer was carefully removed and dried down in siliconized 1.5 mL microfuge tubes (National Scientific Supply Co.). […] The BAS screens were then read using a Fujifilm PhosphoImager FLA-2000 and spots were quantitated using the Fujifilm MacBas imaging/densitometry program.
# The characterization of breast and prostate tumor cell lines for the 17β-HSD activities enabled the identification of cells which could be engineered for preferred 17β-HSD3 activity to monitor the cellular effects of inhibitors. […] In addition, 17β-HSD mRNA was not detected at appreciable levels in these cells by RT-PCR (data not shown). […]
# To confirm that this class of compounds was inhibiting 17β-HSD3, Shinogi-17β-HSD3 cells incubated with {3H}-androstenedione were analyzed by TLC assay following 2-[(3-chloro-4-hydroxybenzoyl)amino]-N-[2-(2-methoxyphenyl)ethyl]-5-phenoxybenzamide treatment.
# [2] = target: T2, AR (Homo sapiens, UniProt P10275, Q868H); assay: testosterone-stimulated parental MDA-MB453 (direct effects on AR); format: cell-based
# T2 construct: endogenous in cells; host or cells: parental MDA-MB453
# T2 sequence (P10275 1-920 Q868H): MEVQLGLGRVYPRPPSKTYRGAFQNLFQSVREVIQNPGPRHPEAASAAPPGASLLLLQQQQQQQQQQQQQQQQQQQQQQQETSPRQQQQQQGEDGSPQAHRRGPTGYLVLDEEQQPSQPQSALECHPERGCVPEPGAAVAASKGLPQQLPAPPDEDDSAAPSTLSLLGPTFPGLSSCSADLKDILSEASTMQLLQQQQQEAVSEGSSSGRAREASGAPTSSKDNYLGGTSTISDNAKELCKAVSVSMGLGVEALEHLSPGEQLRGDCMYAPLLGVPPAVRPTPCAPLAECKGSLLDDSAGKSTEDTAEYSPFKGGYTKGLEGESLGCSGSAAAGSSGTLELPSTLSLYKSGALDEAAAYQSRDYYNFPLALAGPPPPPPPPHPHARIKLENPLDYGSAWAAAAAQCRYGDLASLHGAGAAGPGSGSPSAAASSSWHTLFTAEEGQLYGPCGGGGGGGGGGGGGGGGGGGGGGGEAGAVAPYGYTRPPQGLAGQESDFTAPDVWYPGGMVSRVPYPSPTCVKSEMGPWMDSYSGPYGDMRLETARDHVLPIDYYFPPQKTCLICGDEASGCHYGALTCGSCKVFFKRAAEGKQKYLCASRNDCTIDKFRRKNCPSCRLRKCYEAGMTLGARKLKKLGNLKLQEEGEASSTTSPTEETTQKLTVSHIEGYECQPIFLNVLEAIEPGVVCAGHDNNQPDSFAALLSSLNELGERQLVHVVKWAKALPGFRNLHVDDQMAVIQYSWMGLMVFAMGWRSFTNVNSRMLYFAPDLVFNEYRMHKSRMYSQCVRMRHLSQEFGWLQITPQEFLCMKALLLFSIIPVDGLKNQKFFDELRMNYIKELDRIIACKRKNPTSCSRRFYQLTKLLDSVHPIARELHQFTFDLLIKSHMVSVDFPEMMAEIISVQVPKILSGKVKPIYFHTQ
# [3] = tested on: testosterone biosynthesis; assay: testosterone levels in intact rats; format: in vivo; settings: p.o., over 14 days, FIG. 6
# Method: Intact rats were administered p.o. the indicated doses of 18β-glycyrrhetinic acid over 14 days and testosterone levels were determined.
Compound,IC50 [1] [nM],effects on testosterone-stimulated parental MDA-MB453 [2],testosterone biosynthesis (testosterone levels) [3]
COc1ccccc1CCNC(=O)c1cc(Oc2ccccc2)ccc1NC(=O)c1ccc(O)c(Cl)c1 [2-[(3-chloro-4-hydroxybenzoyl)amino]-N-[2-(2-methoxyphenyl)ethyl]-5-phenoxybenzamide],~300,–,–
"C[C@]12C=CC(=O)C=C1C(=O)C[C@@H]1[C@@H]2CC[C@]2(C)C(=O)CC[C@@H]12 [1,4-androstadiene-1,6,17-trione]",–,No effects were observed,–
CC1(C)[C@@H](O)CC[C@]2(C)[C@H]3C(=O)C=C4[C@@H]5C[C@@](C)(C(=O)O)CC[C@]5(C)CC[C@@]4(C)[C@]3(C)CC[C@@H]12 [18β-glycyrrhetinic acid],–,No effects were observed,inhibition of testosterone biosynthesis
